# Key:
# Format in all cases: in vivo
# [1] = test system: barnyardgrass (Echinochloa crus-galli); test: Test B flooded paddy test
# Procedure, shortened: (§1)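 Flooded-pot test: water raised to 3 cm above soil when treating, compound put in the water, level unchanged thereafter. Plants were at 2 leaves. Readout after 13 to 15 days, visual, relative to controls; 0 signifies no effect and 100 complete control.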
# [2] = test system: umbrella sedge (Cyperus difformis); test: Test B flooded paddy test
# Procedure, shortened: as §1
# rice (Oryza sativa) = test: Test B flooded paddy test
# Procedure, shortened: as §1
# [3] = test system: ducksalad (Heteranthera limosa); test: Test B flooded paddy test
# Procedure, shortened: as §1
# [4] = test system: cocklebur (Xanthium strumarium); test: Test B pre-/postemergence plant response
# Procedure, shortened: (§2)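 Visually scored on a 0 to 100 scale after 13 to 15 days in greenhouse versus controls. Treatments were preemergence on seeded loam/sand soil and postemergence on 1- to 4-leaf plants.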
# [5] = test system: johnsongrass (Sorghum halepense); test: Test B pre-/postemergence plant response
# Procedure, shortened: as §2
# [6] = test system: pigweed (Amaranthus retroflexus); test: Test B pre-/postemergence plant response
# Procedure, shortened: as §2
# wild oat (Avena fatua) = test: Test B pre-/postemergence plant response
# Procedure, shortened: as §2
# [7] = test system: green foxtail (Setaria viridis); test: Test B pre-/postemergence plant response
# Procedure, shortened: as §2
# corn (Zea mays) = test: Test B pre-/postemergence plant response
# Procedure, shortened: as §2
# [8] = test system: bermudagrass (Cynodon dactylon); test: Test B pre-/postemergence plant response
# Procedure, shortened: as §2
# kochia (Kochia scoparia) = test: Test B pre-/postemergence plant response
# Procedure, shortened: as §2
# [9] = test system: ragweed (common ragweed, Ambrosia elatior); test: Test B pre-/postemergence plant response
# Procedure, shortened: as §2
# [10] = test system: lambsquarters (Chenopodium album); test: Test B pre-/postemergence plant response
# Procedure, shortened: as §2
# soybean (Glycine max) = test: Test B pre-/postemergence plant response
# Procedure, shortened: as §2
# [11] = test system: giant foxtail (Setaria faberii); test: Test B pre-/postemergence plant response
# Procedure, shortened: as §2
# [12] = 250 g ai/ha, flooded paddy test, visual rating on 0 to 100 scale (0 no effect, 100 complete control) after 13 to 15 days
# [13] = Flood (flooded paddy test), 62 g ai/ha, scale 0 to 100, 0 is no effect, 100 is complete control, 13 to 15 days
# [14] = 250 g ai/ha, Preemergence, 0 to 100 scale
# [15] = Postemergence, 31 g ai/ha, scale 0 to 100 (0 no effect, 100 complete control)
# [16] = Postemergence, 62 g ai/ha, scale 0 (no effect) to 100 (complete control), 13 to 15 days
# [17] = Postemergence, 125 g ai/ha, visual rating after 13 to 15 days, scale 0 (no effect) to 100 (complete control)
# [18] = Postemergence, 250 g ai/ha, scale 0 to 100
# [19] = Preemergence, 31 g ai/ha, scale 0 to 100 (0 no effect, 100 complete control)
# [20] = Preemergence, 125 g ai/ha, 0 to 100 scale
# [21] = Preemergence, 62 g ai/ha, scale 0 to 100, 0 no effect, 100 complete control
structure (smiles),measurement,setting,value
O=C1CCCC(O)=C1C(=O)c1cnc(-c2ccccc2)n(-c2ccc(F)cc2)c1=O [Compound 24],"Plant response rating, Flood, Barnyardgrass",[1]; [12],20
same,"Plant response rating, Barnyardgrass",[1]; [13],0
same,"Plant response rating, Flood, Sedge, Umbrella",[2]; [12],75
same,"Plant response rating, Sedge, Umbrella",[2]; [13],0
same,"Plant response rating, Flood, Rice",rice (Oryza sativa); [12],0
same,"Plant response rating, Rice",rice (Oryza sativa); [13],0
same,"Plant response rating, Flood, Ducksalad",[3]; [12],75
same,"Plant response rating, Ducksalad",[3]; [13],20
same,"Plant response rating, Cocklebur",[4]; [14],95
same,"Plant response rating, Cocklebur",[4]; [15],90
same,"Plant response rating, Cocklebur",[4]; [16],98
same,"Plant response rating, Cocklebur",[4]; [17],98
same,Cocklebur plant response rating,[4]; [18],100
same,"Plant response rating, Cocklebur",[4]; [19],10
same,Cocklebur plant response rating,[4]; [20],95
same,"Plant response rating, Johnsongrass",[5]; [14],90
same,"Plant response rating, Johnsongrass",[5]; [15],60
same,"Plant response rating, Johnsongrass",[5]; [16],60
same,"Plant response rating, Johnsongrass",[5]; [17],70
same,Johnsongrass plant response rating,[5]; [18],80
same,"Plant response rating, Johnsongrass",[5]; [19],20
same,"Plant response rating, Johnsongrass",[5]; [21],85
same,Johnsongrass plant response rating,[5]; [20],90
same,"Plant response rating, Pigweed",[6]; [14],100
same,"Plant response rating, Pigweed",[6]; [15],70
same,"Plant response rating, Pigweed",[6]; [16],80
same,"Plant response rating, Pigweed",[6]; [17],80
same,Pigweed plant response rating,[6]; [18],80
same,"Plant response rating, Pigweed",[6]; [19],98
same,"Plant response rating, Pigweed",[6]; [21],100
same,Pigweed plant response rating,[6]; [20],100
same,"Plant response rating, Oat, Wild",wild oat (Avena fatua); [14],80
same,"Plant response rating, Oat, Wild",wild oat (Avena fatua); [15],40
same,"Plant response rating, Oat, Wild",wild oat (Avena fatua); [16],50
same,"Plant response rating, Oat, Wild",wild oat (Avena fatua); [17],60
same,"Oat, Wild plant response rating",wild oat (Avena fatua); [18],80
same,"Plant response rating, Oat, Wild",wild oat (Avena fatua); [19],0
same,"Plant response rating, Oat, Wild",wild oat (Avena fatua); [21],0
same,"Oat, Wild plant response rating",wild oat (Avena fatua); [20],0
same,"Plant response rating, Foxtail, Green",[7]; [14],100
same,"Plant response rating, Foxtail, Green",[7]; [15],40
same,"Plant response rating, Foxtail, Green",[7]; [16],40
same,"Plant response rating, Foxtail, Green",[7]; [17],90
same,"Foxtail, Green plant response rating",[7]; [18],95
same,"Plant response rating, Foxtail, Green",[7]; [19],0
same,"Plant response rating, Foxtail, Green",[7]; [21],40
same,"Foxtail, Green plant response rating",[7]; [20],100
same,"Plant response rating, Corn",corn (Zea mays); [14],5
same,"Plant response rating, Corn",corn (Zea mays); [15],30
same,"Plant response rating, Corn",corn (Zea mays); [16],50
same,"Plant response rating, Corn",corn (Zea mays); [17],85
same,Corn plant response rating,corn (Zea mays); [18],85
same,"Plant response rating, Corn",corn (Zea mays); [19],0
same,"Plant response rating, Corn",corn (Zea mays); [21],0
same,Corn plant response rating,corn (Zea mays); [20],0
same,"Plant response rating, Bermudagrass",[8]; [14],100
same,"Plant response rating, Bermudagrass",[8]; [15],85
same,"Plant response rating, Bermudagrass",[8]; [16],95
same,"Plant response rating, Bermudagrass","[8]; Postemergence, 125 g ai/ha, scale 0 to 100 (0 no effect, 100 complete control), 13 to 15 days",100
same,Bermudagrass plant response rating,[8]; [18],100
same,"Plant response rating, Bermudagrass",[8]; [19],95
same,"Plant response rating, Bermudagrass",[8]; [21],100
same,Bermudagrass plant response rating,[8]; [20],100
same,"Plant response rating, Kochia",kochia (Kochia scoparia); [14],100
same,"Plant response rating, Kochia",kochia (Kochia scoparia); [15],70
same,"Plant response rating, Kochia",kochia (Kochia scoparia); [16],70
same,"Plant response rating, Kochia",kochia (Kochia scoparia); [17],80
same,Kochia plant response rating,kochia (Kochia scoparia); [18],100
same,"Plant response rating, Kochia",kochia (Kochia scoparia); [19],100
same,"Plant response rating, Kochia",kochia (Kochia scoparia); [21],100
same,Kochia plant response rating,kochia (Kochia scoparia); [20],100
same,"Plant response rating, Ragweed",[9]; [14],100
same,"Plant response rating, Ragweed",[9]; [15],70
same,"Plant response rating, Ragweed",[9]; [16],80
same,"Plant response rating, Ragweed",[9]; [17],90
same,Ragweed plant response rating,[9]; [18],98
same,"Plant response rating, Ragweed",[9]; [19],85
same,"Plant response rating, Ragweed",[9]; [21],90
same,Ragweed plant response rating,[9]; [20],98
same,"Plant response rating, Lambsquarters",[10]; [14],100
same,"Plant response rating, Lambsquarters",[10]; [15],90
same,"Plant response rating, Lambsquarters",[10]; [16],90
same,"Plant response rating, Lambsquarters",[10]; [17],90
same,Lambsquarters plant response rating,[10]; [18],100
same,"Plant response rating, Lambsquarters",[10]; [19],98
same,"Plant response rating, Lambsquarters",[10]; [21],100
same,Lambsquarters plant response rating,[10]; [20],100
same,"Plant response rating, Soybean",soybean (Glycine max); [14],85
same,"Plant response rating, Soybean",soybean (Glycine max); [15],85
same,"Plant response rating, Soybean",soybean (Glycine max); [16],95
same,"Plant response rating, Soybean",soybean (Glycine max); [17],95
same,Soybean plant response rating,soybean (Glycine max); [18],100
same,"Plant response rating, Soybean",soybean (Glycine max); [19],45
same,"Plant response rating, Soybean",soybean (Glycine max); [21],60
same,Soybean plant response rating,soybean (Glycine max); [20],80
same,"Plant response rating, Foxtail, Giant",[11]; [14],100
same,"Plant response rating, Foxtail, Giant",[11]; [15],70
same,"Plant response rating, Foxtail, Giant",[11]; [16],85
same,"Plant response rating, Foxtail, Giant",[11]; [17],90
same,"Foxtail, Giant plant response rating",[11]; [18],95
same,"Plant response rating, Foxtail, Giant",[11]; [19],30
same,"Plant response rating, Foxtail, Giant",[11]; [21],85
same,"Foxtail, Giant plant response rating",[11]; [20],90
